Measured values as given in the supplement of paper PMC10307832.

Experiments:
Assay in all cases: relative viability (nuclei count vs DMSO), 5 days (fraction); higher = more cells survive
[1] = compound: C1=CC(=CC=C1NC(=S)NNC2=C(C=C(C=C2[N+](=O)[O-])C(F)(F)F)[N+](=O)[O-])F [Kobe2602] + Cc1cc(Nc2cc(N3CCN(C)CC3)nc(Sc3ccc(NC(=O)C4CC4)cc3)n2)n[nH]1 [Tozasertib] (partner 0.1 µM)
Procedure, shortened: (§1)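 Relative viability was taken as the ratio of nuclei in treated wells to nuclei in vehicle wells. Lung cancer cell lines in 1536-well plates received compounds by pin tool one day after seeding, either one drug alone or a fixed anchor-drug dose plus five library-drug doses (not always all listed) in √10 steps. Nuclei were counted on 4× images after 5 days of treatment, and values are medians of duplicate plates.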

[2] = compound: C1=CC(=CC=C1NC(=S)NNC2=C(C=C(C=C2[N+](=O)[O-])C(F)(F)F)[N+](=O)[O-])F [Kobe2602] + O=C(c1cc(Cc2n[nH]c(=O)c3ccccc23)ccc1F)N1CCN(C(=O)C2CC2)CC1 [Olaparib] (partner 8 µM)
Procedure, shortened: as §1

[3] = compound: COc1cc2nccc(Oc3ccc(NC(=O)C4(C(=O)Nc5ccc(F)cc5)CC4)cc3)c2cc1OC [Cabozantinib] + C[C@]1(O)C[C@@H](c2nc(-c3ccc4ccc(-c5ccccc5)nc4c3)c3c(N)nccn32)C1 [Linsitinib] (partner 1 µM)
Procedure, shortened: as §1

[4] = compound: COc1cc2nccc(Oc3ccc(NC(=O)C4(C(=O)Nc5ccc(F)cc5)CC4)cc3)c2cc1OC [Cabozantinib] + N=C(N)NC(=N)NCCc1ccccc1 [Phenformin] (partner 250 µM)
Procedure, shortened: as §1

Row | Cell Line | relative viability ([1]; first compound 0.2 µM) | relative viability ([1]; first compound 0.6325 µM) | relative viability ([1]; first compound 2 µM) | relative viability ([1]; first compound 6.325 µM) | relative viability ([1]; first compound 20 µM) | relative viability ([2]; first compound 0.2 µM) | relative viability ([2]; first compound 0.6325 µM) | relative viability ([2]; first compound 2 µM) | relative viability ([2]; first compound 6.325 µM) | relative viability ([2]; first compound 20 µM) | relative viability ([3]; first compound 0.02 µM) | relative viability ([3]; first compound 0.06325 µM) | relative viability ([3]; first compound 0.2 µM) | relative viability ([3]; first compound 0.6325 µM) | relative viability ([3]; first compound 2 µM) | relative viability ([4]; first compound 0.06325 µM) | relative viability ([4]; first compound 0.6325 µM) | relative viability ([4]; first compound 2 µM) | relative viability ([4]; first compound 0.02 µM) | relative viability ([4]; first compound 0.2 µM)
1 | LK-2 | 0.174 | 0.188 | 0.189 | 0.174 | 0.174 | 0.619 | 0.766 | 0.875 | 0.596 | 0.796 | 0.724 | 0.73 | 0.619 | 0.633 | 0.716 | 0.508 | 0.396 | 0.607 |  | 
2 | NCI-H1755 | 0.638 | 0.596 | 0.557 | 0.608 | 0.554 | 0.848 | 0.893 | 0.87 | 0.853 | 0.915 | 0.982 | 0.967 | 0.965 | 0.841 | 0.834 | 0.624 | 0.644 | 0.561 | 0.611 | 0.57
3 | A-427 | 0.233 | 0.242 | 0.198 | 0.229 | 0.218 | 0.74 | 0.726 | 0.73 | 0.785 | 0.701 | 1.12 | 1.1 | 1.08 | 1.1 | 1.13 | 0.321 | 0.359 | 0.232 | 0.374 | 0.427
4 | PC-3 [JPC-3] | 0.885 | 0.836 | 0.849 | 0.858 | 0.807 | 1.1 | 1.22 | 1.13 | 1.19 | 1.13 | 0.971 | 0.993 |  | 1 | 0.902 | 0.505 | 0.457 | 0.462 | 0.491 | 
5 | LOU-NH91 | 0.703 | 0.703 | 0.658 | 0.685 | 0.739 | 0.9 | 0.922 | 0.875 | 0.917 | 0.819 | 0.928 | 1.09 | 0.537 | 0.939 | 0.95 | 0.931 | 0.792 | 0.731 | 0.602 | 
6 | BEN | 0.56 | 0.518 | 0.491 | 0.666 | 0.555 | 1.08 | 1.02 | 1 | 1.07 | 0.973 | 0.906 | 0.993 | 0.974 | 0.795 | 0.597 | 0.259 | 0.268 | 0.274 | 0.251 | 0.284
7 | NCI-H2085 | 0.736 | 0.772 | 0.775 | 0.567 | 0.751 | 0.768 | 0.835 | 0.848 | 0.809 | 0.799 | 0.93 | 0.868 | 0.918 | 0.847 | 0.875 | 0.752 | 0.695 | 0.616 | 0.749 | 0.595
8 | LC-2-ad | 0.478 | 0.534 | 0.489 | 0.453 | 0.472 | 0.693 | 0.683 | 0.708 | 0.736 | 0.682 | 0.846 | 0.795 | 0.659 | 0.56 | 0.461 | 0.68 | 0.604 | 0.546 |  | 0.574
9 | ABC-1 | 0.201 | 0.181 |  | 0.216 | 0.215 | 0.639 | 0.623 | 0.747 | 0.773 | 0.775 | 0.719 | 0.816 | 0.81 | 0.87 | 0.754 | 0.276 | 0.28 | 0.218 | 0.244 | 0.235
10 | NCI-H727 | 0.716 | 0.583 | 0.741 | 0.702 | 0.504 | 0.748 | 0.678 | 0.847 |  | 0.736 | 0.323 | 0.231 | 0.282 | 0.22 | 0.309 | 0.617 | 0.495 | 0.528 | 0.447 | 0.477
11 | EPLC-272H | 0.224 | 0.305 | 0.291 | 0.302 | 0.409 | 0.905 | 0.744 | 0.578 | 0.663 | 0.943 | 1.3 | 1.05 | 1.03 | 1.06 | 1.17 | 0.331 | 0.357 | 0.291 | 0.269 | 0.24
12 | EKVX | 0.391 | 0.284 | 0.362 | 0.365 | 0.278 | 0.749 | 0.792 | 0.864 | 0.786 | 0.808 | 0.955 | 1.11 | 0.806 | 0.989 | 1.09 | 0.253 | 0.222 | 0.23 | 0.239 | 0.223
13 | NCI-H1666 | 0.644 | 0.61 | 0.571 | 0.604 | 0.544 | 0.717 | 0.741 | 0.829 | 0.774 | 0.805 | 1.05 | 0.819 | 0.847 | 0.811 | 0.925 | 0.559 | 0.544 | 0.601 | 0.568 | 0.607
14 | HCC-15 | 0.351 | 0.377 | 0.299 | 0.425 | 0.431 | 0.691 | 0.727 | 0.609 | 0.742 | 0.837 | 1 | 0.958 | 0.846 | 0.843 | 0.736 | 0.532 | 0.478 | 0.491 | 0.366 | 0.512
15 | LCLC-103H | 0.498 | 0.535 | 0.469 | 0.436 | 0.479 | 0.775 | 0.793 | 0.804 | 0.762 | 0.764 | 1.21 | 1.01 | 1.07 | 0.986 | 1.05 | 0.354 | 0.371 | 0.306 | 0.296 | 0.27
16 | NCI-H2405 | 0.804 | 0.758 | 0.732 | 0.767 | 0.853 | 0.915 | 0.874 | 0.868 | 0.905 | 0.909 |  | 1.14 | 0.905 | 0.908 | 0.852 | 0.46 | 0.39 | 0.418 | 0.335 | 0.484
